From ChEMBL document CHEMBL1201861, “Genomics of Drug Sensitity in Cancer screening data, Wellcome Trust Sanger Institute”

What was measured:
Experiment in all cases: cells
D-392MG = type: functional, cell-based, Homo sapiens; conditions: Homo sapiens, D-392MG
OS-RC-2 = type: functional, cell-based, Homo sapiens; conditions: Homo sapiens, OS-RC-2;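 also: growth inhibition of human OS-RC-2 cells, measured by a cell viability assay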
Description: SANGER: Inhibition of human OS-RC-2 cell growth in a cell viability assay.

S-117 = type: functional, cell-based, Homo sapiens; conditions: Homo sapiens, S-117
Description: SANGER: Inhibition of human S-117 cell growth in a cell viability assay.

C-33-A = type: functional, cell-based, Homo sapiens; conditions: Homo sapiens, C-33-A;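 also: cell viability assay measuring growth inhibition of C-33-A cells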
Description: SANGER: Inhibition of human C-33-A cell growth in a cell viability assay.

IST-MES1 = type: functional, cell-based, Homo sapiens; conditions: Homo sapiens, IST-MES1;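 also: growth inhibition of IST-MES1 cells, measured with a cell viability assay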
Description: SANGER: Inhibition of human IST-MES1 cell growth in a cell viability assay.

KYSE-270 = type: functional, cell-based, Homo sapiens; conditions: Homo sapiens, KYSE-270;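 also: cell growth inhibition measured with a viability assay in the human KYSE-270 line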
Description: SANGER: Inhibition of human KYSE-270 cell growth in a cell viability assay.

NCI-H2087 = type: functional, cell-based, Homo sapiens; conditions: Homo sapiens, NCI-H2087;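 also: growth inhibition determined with a cell viability readout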
Description: SANGER: Inhibition of human NCI-H2087 cell growth in a cell viability assay.

LB1047-RCC = type: functional, cell-based, Homo sapiens; conditions: Homo sapiens, LB1047-RCC;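 also: inhibition of cell growth, determined with a cell viability assay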
Description: SANGER: Inhibition of human LB1047-RCC cell growth in a cell viability assay.

CCRF-CEM = type: functional, cell-based; conditions: Homo sapiens;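 also: inhibition of CCRF-CEM cell growth, measured by a cell viability assay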
Description: SANGER: Inhibition of human CCRF-CEM cell growth in a cell viability assay.

A-431 = type: functional, cell-based, Homo sapiens; conditions: Homo sapiens, A-431;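 also: growth inhibition of A-431 cells, determined with a cell viability read-out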
Description: SANGER: Inhibition of human A431 cell growth in a cell viability assay.

BE-13 = type: functional, cell-based; conditions: Homo sapiens;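 also: growth inhibition of human BE-13 cells, measured with a cell viability assay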
Description: SANGER: Inhibition of human BE-13 cell growth in a cell viability assay.

GP5d = type: functional, cell-based, Homo sapiens; conditions: Homo sapiens, GP5d;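 also: growth inhibition of human GP5d cells, read out with a cell viability assay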
Description: SANGER: Inhibition of human GP5d cell growth in a cell viability assay.

WM-115 = type: functional, cell-based, Homo sapiens; conditions: Homo sapiens, WM-115
Description: SANGER: Inhibition of human WM-115 cell growth in a cell viability assay.

LoVo = type: functional, cell-based; conditions: Homo sapiens;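 also: growth inhibition of human LoVo cells, read out with a cell viability assay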
Description: SANGER: Inhibition of human LoVo cell growth in a cell viability assay.

EKVX = type: functional, cell-based, Homo sapiens; conditions: Homo sapiens, EKVX;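 also: growth inhibition of human EKVX cells, read out with a cell viability assay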
Description: SANGER: Inhibition of human EKVX cell growth in a cell viability assay.

COR-L105 = type: functional, cell-based, Homo sapiens; conditions: Homo sapiens, COR-L105;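 also: cell growth inhibition determined with a viability assay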
Description: SANGER: Inhibition of human COR-L105 cell growth in a cell viability assay.

ESS-1 = type: functional, cell-based, Homo sapiens; conditions: Homo sapiens, ESS-1;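 also: growth inhibition of human ESS-1 cells, read out by a cell viability assay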
Description: SANGER: Inhibition of human ESS-1 cell growth in a cell viability assay.

SH-4 = type: functional, cell-based, Homo sapiens; conditions: Homo sapiens, SH-4;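 also: growth inhibition of SH-4 cells, read out with a cell viability assay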
Description: SANGER: Inhibition of human SH-4 cell growth in a cell viability assay.

no-11 = type: functional, cell-based, Homo sapiens; conditions: Homo sapiens;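 also: growth inhibition of human NO-11 cells, read out with a cell viability assay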
Description: SANGER: Inhibition of human no-11 cell growth in a cell viability assay.

NCI-H292 = type: functional, cell-based, Homo sapiens; conditions: Homo sapiens, NCI-H292;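 also: growth inhibition of NCI-H292 cells, read out with a cell viability assay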
Description: SANGER: Inhibition of human NCI-H292 cell growth in a cell viability assay.

CWR22R = type: functional, cell-based, Homo sapiens; conditions: Homo sapiens, 22Rv1;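 also: growth inhibition of 22Rv1 cells, read out with a cell viability assay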
Description: SANGER: Inhibition of human 22RV1 cell growth in a cell viability assay.

UACC-257 = type: functional, cell-based, Homo sapiens; conditions: Homo sapiens, UACC-257
Description: SANGER: Inhibition of human UACC-257 cell growth in a cell viability assay.

CAL-62 = type: functional, cell-based, Homo sapiens; conditions: Homo sapiens, CAL-62;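 also: growth inhibition of CAL-62 cells, read out with a cell viability assay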
Description: SANGER: Inhibition of human CAL-62 cell growth in a cell viability assay.

LAN-6 = type: functional, cell-based, Homo sapiens; conditions: Homo sapiens, LAN-6;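 also: growth inhibition of LAN-6 cells, determined with a cell viability assay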
Description: SANGER: Inhibition of human LAN-6 cell growth in a cell viability assay.

HCC1569 = type: functional, cell-based, Homo sapiens; conditions: Homo sapiens, HCC1569;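 also: growth inhibition of human HCC1569 cells, read out with a cell viability assay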
Description: SANGER: Inhibition of human HCC1569 cell growth in a cell viability assay.

GCIY = type: functional, cell-based, Homo sapiens; conditions: Homo sapiens, GCIY;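 also: growth inhibition of the human GCIY cell line, read out by a cell viability assay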
Description: SANGER: Inhibition of human GCIY cell growth in a cell viability assay.

A704 = type: functional, cell-based, Homo sapiens; conditions: Homo sapiens, A704;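 also: growth inhibition of human A704 cells, read out with a cell viability assay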
Description: SANGER: Inhibition of human A704 cell growth in a cell viability assay.

NCI-H2347 = type: functional, cell-based, Homo sapiens; conditions: Homo sapiens, NCI-H2347;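 also: growth inhibition of the cell line, read out with a cell viability assay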
Description: SANGER: Inhibition of human NCI-H2347 cell growth in a cell viability assay.

RH-1 = type: functional, cell-based, Homo sapiens; conditions: Homo sapiens, RH-1;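 also: growth inhibition of human RH-1 cells, read out with a cell viability assay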
Description: SANGER: Inhibition of human RH-1 cell growth in a cell viability assay.

Lu-65 = type: functional, cell-based; conditions: Homo sapiens;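 also: growth inhibition of Lu-65 cancer cells, read out by a cell viability assay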
Description: SANGER: Inhibition of human LU-65 cell growth in a cell viability assay.

KLE = type: functional, cell-based, Homo sapiens; conditions: Homo sapiens, KLE;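 also: growth inhibition of human KLE cells, read out with a cell viability assay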
Description: SANGER: Inhibition of human KLE cell growth in a cell viability assay.

NCI-H82 = type: functional, cell-based; conditions: Homo sapiens;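 also: growth inhibition of NCI-H82 cells, measured with a cell viability readout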
Description: SANGER: Inhibition of human NCI-H82 cell growth in a cell viability assay.

NCI-H358 = type: functional, cell-based, Homo sapiens; conditions: Homo sapiens, NCI-H358;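 also: growth inhibition of NCI-H358 human cells, read out with a cell viability assay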
Description: SANGER: Inhibition of human NCI-H358 cell growth in a cell viability assay.

CP50-MEL-B = type: functional, cell-based, Homo sapiens; conditions: Homo sapiens, CP50-MEL-B;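 also: growth inhibition of the human cell line, measured with a cell viability read-out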
Description: SANGER: Inhibition of human CP50-MEL-B cell growth in a cell viability assay.

HH = type: functional, cell-based; conditions: Homo sapiens
Description: SANGER: Inhibition of human HH cell growth in a cell viability assay.

RKO = type: functional, cell-based, Homo sapiens; conditions: Homo sapiens, RKO;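 also: growth inhibition of human RKO cells, read out with a cell viability assay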
Description: SANGER: Inhibition of human RKO cell growth in a cell viability assay.

MG-63 = type: functional, cell-based, Homo sapiens; conditions: Homo sapiens, MG-63;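 also: growth inhibition of human MG-63 cells, read out with a cell viability assay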
Description: SANGER: Inhibition of human MG-63 cell growth in a cell viability assay.

ATN-1 = type: functional, cell-based; conditions: Homo sapiens;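 also: growth inhibition of human ATN-1 cells, read out with a cell viability assay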
Description: SANGER: Inhibition of human ATN-1 cell growth in a cell viability assay.

CAL-33 = type: functional, cell-based, Homo sapiens; conditions: Homo sapiens, CAL-33;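 also: growth inhibition of CAL-33 cells, read out with a cell viability assay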
Description: SANGER: Inhibition of human CAL-33 cell growth in a cell viability assay.

ES7 = type: functional, cell-based, Homo sapiens; conditions: Homo sapiens, ES7;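 also: growth inhibition of cultured human ES7 cells, read out as cell viability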
Description: SANGER: Inhibition of human ES7 cell growth in a cell viability assay.

SW872 = type: functional, cell-based, Homo sapiens; conditions: Homo sapiens, SW872;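 also: growth inhibition of SW872 cells, read out by a viability assay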
Description: SANGER: Inhibition of human SW872 cell growth in a cell viability assay.

NCI-H596 = type: functional, cell-based, Homo sapiens; conditions: Homo sapiens, NCI-H596;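 also: growth inhibition of NCI-H596 cells, read out with a cell viability assay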
Description: SANGER: Inhibition of human NCI-H596 cell growth in a cell viability assay.

KG-1 = type: functional, cell-based; conditions: Homo sapiens;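 also: growth inhibition of KG-1 cells, read out by a cell viability assay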
Description: SANGER: Inhibition of human KG-1 cell growth in a cell viability assay.

NKM-1 = type: functional, cell-based; conditions: Homo sapiens;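 also: growth inhibition of NKM-1 cells, read out with a cell viability assay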
Description: SANGER: Inhibition of human NKM-1 cell growth in a cell viability assay.

COLO-679 = type: functional, cell-based, Homo sapiens; conditions: Homo sapiens, COLO-679
Description: SANGER: Inhibition of human COLO-679 cell growth in a cell viability assay.

MDA-MB-415 = type: functional, cell-based; conditions: Homo sapiens
SK-N-AS = type: functional, cell-based, Homo sapiens; conditions: Homo sapiens, SK-N-AS;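 also: growth inhibition of human SK-N-AS cells, measured with a cell viability assay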
Description: SANGER: Inhibition of human SK-N-AS cell growth in a cell viability assay.

SW1573 = type: functional, cell-based, Homo sapiens; conditions: Homo sapiens, SW1573;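 also: growth inhibition of SW1573 cells, read out with a cell viability assay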
Description: SANGER: Inhibition of human SW1573 cell growth in a cell viability assay.

TGBC24TKB = type: functional, cell-based, Homo sapiens; conditions: Homo sapiens, TGBC24TKB;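 also: growth inhibition of human TGBC24TKB cells, read out with a cell viability assay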
Description: SANGER: Inhibition of human TGBC24TKB cell growth in a cell viability assay.

NCI-H1395 = type: functional, cell-based, Homo sapiens; conditions: Homo sapiens, NCI-H1395;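 also: cell viability assay read-out quantifying reduced proliferation of human NCI-H1395 cells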
Description: SANGER: Inhibition of human NCI-H1395 cell growth in a cell viability assay.

SiHa = type: functional, cell-based, Homo sapiens; conditions: Homo sapiens, SiHa;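 also: Viability-based readout of growth inhibition in SiHa cells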
Description: SANGER: Inhibition of human SiHa cell growth in a cell viability assay.

Compound: COc1cc(F)c(F)c(Nc2ccc(I)cc2F)c1NS(=O)(=O)C1(CC(O)CO)CC1 (stereo not drawn)
- IC50 (D-392MG): > 5 µM
- IC50 (OS-RC-2): > 5 µM
- IC50 (S-117): > 5 µM
- IC50 (C-33-A): > 5 µM
- IC50 (IST-MES1): > 5 µM
- IC50 (KYSE-270): > 5 µM
- IC50 (NCI-H2087): 2.42 µM
- IC50 (LB1047-RCC): 1.09 µM
- IC50 (CCRF-CEM): > 5 µM
- IC50 (A-431): 2.92 µM
- IC50 (BE-13): > 5 µM
- IC50 (GP5d): > 5 µM
- IC50 (WM-115): 0.421 µM
- IC50 (LoVo): 0.396 µM
- IC50 (EKVX): > 5 µM
- IC50 (COR-L105): > 5 µM
- IC50 (ESS-1): > 5 µM
- IC50 (SH-4): 0.0856 µM
- IC50 (no-11): > 5 µM
- IC50 (NCI-H292): 0.64 µM
- IC50 (CWR22R): > 5 µM
- IC50 (UACC-257): 0.0667 µM
- IC50 (CAL-62): 0.682 µM
- IC50 (LAN-6): 0.521 µM
- IC50 (HCC1569): > 5 µM
- IC50 (GCIY): 1.18 µM
- IC50 (A704): 4.7 µM
- IC50 (NCI-H2347): 0.868 µM
- IC50 (RH-1): > 5 µM
- IC50 (Lu-65): 3.28 µM
- IC50 (KLE): > 5 µM
- IC50 (NCI-H82): > 5 µM
- IC50 (NCI-H358): > 5 µM
- IC50 (CP50-MEL-B): 0.0215 µM
- IC50 (HH): > 5 µM
- IC50 (RKO): 1.39 µM
- IC50 (MG-63): 2.82 µM
- IC50 (ATN-1): > 5 µM
- IC50 (CAL-33): 1.56 µM
- IC50 (ES7): > 5 µM
- IC50 (SW872): 0.774 µM
- IC50 (NCI-H596): > 5 µM
- IC50 (KG-1): > 5 µM
- IC50 (NKM-1): 2.43 µM
- IC50 (COLO-679): 0.153 µM
- IC50 (MDA-MB-415): > 5 µM
- IC50 (SK-N-AS): 0.0433 µM
- IC50 (SW1573): > 5 µM
- IC50 (TGBC24TKB): > 5 µM
- IC50 (NCI-H1395): > 5 µM
- IC50 (SiHa): > 5 µM

Compound: CCOc1nc(NC(=O)Cc2cc(OC)ccc2OC)cc(N)c1C#N
- IC50 (D-392MG): > 10 µM
- IC50 (OS-RC-2): > 10 µM
- IC50 (S-117): > 10 µM
- IC50 (C-33-A): > 10 µM
- IC50 (IST-MES1): > 10 µM
- IC50 (KYSE-270): > 10 µM
- IC50 (NCI-H2087): > 10 µM
- IC50 (LB1047-RCC): > 10 µM
- IC50 (CCRF-CEM): > 10 µM
- IC50 (A-431): > 10 µM
- IC50 (BE-13): > 10 µM
- IC50 (GP5d): > 10 µM
- IC50 (WM-115): > 10 µM
- IC50 (LoVo): > 10 µM
- IC50 (EKVX): > 10 µM
- IC50 (COR-L105): > 10 µM
- IC50 (ESS-1): > 10 µM
- IC50 (SH-4): > 10 µM
- IC50 (no-11): > 10 µM
- IC50 (NCI-H292): > 10 µM
- IC50 (CWR22R): > 10 µM
- IC50 (UACC-257): > 10 µM
- IC50 (CAL-62): > 10 µM
- IC50 (LAN-6): > 10 µM
- IC50 (HCC1569): > 10 µM
- IC50 (GCIY): > 10 µM
- IC50 (A704): > 10 µM
- IC50 (NCI-H2347): > 10 µM
- IC50 (RH-1): > 10 µM
- IC50 (Lu-65): > 10 µM
- IC50 (KLE): > 10 µM
- IC50 (NCI-H82): > 10 µM
- IC50 (NCI-H358): > 10 µM
- IC50 (CP50-MEL-B): > 10 µM
- IC50 (HH): > 10 µM
- IC50 (RKO): > 10 µM
- IC50 (MG-63): > 10 µM
- IC50 (ATN-1): > 10 µM
- IC50 (CAL-33): > 10 µM
- IC50 (ES7): > 10 µM
- IC50 (SW872): > 10 µM
- IC50 (NCI-H596): > 10 µM
- IC50 (KG-1): > 10 µM
- IC50 (NKM-1): > 10 µM
- IC50 (COLO-679): > 10 µM
- IC50 (MDA-MB-415): > 10 µM
- IC50 (SK-N-AS): > 10 µM
- IC50 (SW1573): > 10 µM
- IC50 (TGBC24TKB): > 10 µM
- IC50 (NCI-H1395): > 10 µM
- IC50 (SiHa): > 10 µM

Compound: COc1ccc(C2=N[C@@H](c3ccc(Cl)cc3)[C@@H](c3ccc(Cl)cc3)N2C(=O)N2CCNC(=O)C2)c(OC(C)C)c1 [NUTLIN-3]
- IC50 (D-392MG): > 8 µM
- IC50 (OS-RC-2): 5.74 µM
- IC50 (S-117): > 8 µM
- IC50 (C-33-A): > 8 µM
- IC50 (IST-MES1): 4.41 µM
- IC50 (KYSE-270): > 8 µM
- IC50 (NCI-H2087): > 8 µM
- IC50 (LB1047-RCC): > 8 µM
- IC50 (CCRF-CEM): > 8 µM
- IC50 (A-431): > 8 µM
- IC50 (BE-13): > 8 µM
- IC50 (GP5d): > 8 µM
- IC50 (WM-115): 6.93 µM
- IC50 (LoVo): 6.02 µM
- IC50 (EKVX): > 8 µM
- IC50 (COR-L105): > 8 µM
- IC50 (ESS-1): > 8 µM
- IC50 (SH-4): > 8 µM
- IC50 (no-11): > 8 µM
- IC50 (NCI-H292): 3.12 µM
- IC50 (CWR22R): > 8 µM
- IC50 (UACC-257): > 8 µM
- IC50 (CAL-62): > 8 µM
- IC50 (LAN-6): > 8 µM
- IC50 (HCC1569): > 8 µM
- IC50 (GCIY): > 8 µM
- IC50 (A704): > 8 µM
- IC50 (NCI-H2347): > 8 µM
- IC50 (RH-1): > 8 µM
- IC50 (Lu-65): > 8 µM
- IC50 (KLE): > 8 µM
- IC50 (NCI-H82): > 8 µM
- IC50 (NCI-H358): 7.45 µM
- IC50 (CP50-MEL-B): 4.24 µM
- IC50 (HH): > 8 µM
- IC50 (RKO): 3.54 µM
- IC50 (MG-63): > 8 µM
- IC50 (ATN-1): > 8 µM
- IC50 (CAL-33): > 8 µM
- IC50 (ES7): > 8 µM
- IC50 (SW872): > 8 µM
- IC50 (NCI-H596): > 8 µM
- IC50 (KG-1): > 8 µM
- IC50 (NKM-1): 1.05 µM
- IC50 (COLO-679): > 8 µM
- IC50 (MDA-MB-415): > 8 µM
- IC50 (SK-N-AS): > 8 µM
- IC50 (SW1573): > 8 µM
- IC50 (TGBC24TKB): > 8 µM
- IC50 (NCI-H1395): > 8 µM
- IC50 (SiHa): > 8 µM
